{"source": "paper PMC11133627", "about": "“CATH-2-derived antimicrobial peptide inhibits multidrug-resistant Escherichia coli infection in chickens” (Frontiers in Cellular and Infection Microbiology, 2024)", "key": {"[1]": {"test_system": "E. coli clinical isolate E1", "format": "cell-based", "parameters": "key: R: resistant strains; I: intermediate strains; S: sensitive strains", "settings": "6 mm antibiotic paper on LB agar, 1×10^6 CFU/mL, 24h 37°C, inhibition zone diameter", "protocol": "(§1) E. coli (ATCC 8739) and clinical isolates of E. coli (E1, E9, E12, E14, E16, and E18) were stored at the Animal Biochemical Laboratory of Shanxi Agricultural University and grown in Luria-Bertani (LB) broth as previously reported ([Zhao et al., 2021]). Circular 6 mm paper pieces were prepared with filter paper and autoclaved for sterilization. […] Then, 0.5 mL of antibiotic solution was added to 100 sterilized papers. Subsequently, the paper pieces were fully infiltrated and dried in a vacuum drying oven to produce antibiotic susceptibility papers. The E. coli strain was retrieved from the -20°C freezer and activated by incubating it on LB agar media at 37°C for 24h. Individual colonies were selected and transferred to LB liquid media. Thereafter, the E. coli suspension was obtained by shaking at 37°C and 160 r/min for 18h. The obtained suspension was centrifuged at 5000 r/min for 5min, after which the supernatant was discarded, and the bacteria were resuspended in fresh medium to a concentration of 1×10^6 CFU/mL. Two hundred microliters of the bacterial suspension mentioned above was spread evenly onto LB agar medium. Then, the antibiotic susceptibility papers were placed on the medium surface using sterile tweezers. After 24h of incubation at 37°C, the diameter of the inhibition zone was measured to determine the susceptibility of E. coli to antibiotics."}, "[2]": {"test_system": "E. coli clinical isolate E18", "test": "Drug-sensitivity test (paper disc, inhibition zone)", "format": "cell-based, Escherichia coli", "parameters": "key: R: resistant strains; I: intermediate strains; S: sensitive strains", "settings": "6 mm antibiotic paper on LB agar, 1×10^6 CFU/mL, 24h 37°C, inhibition zone diameter", "protocol": "as §1"}, "[3]": {"test_system": "E. coli clinical isolate E9", "test": "Drug-sensitivity test (paper disc, inhibition zone)", "format": "cell-based, Escherichia coli", "parameters": "key: R: resistant strains; I: intermediate strains; S: sensitive strains", "settings": "6 mm antibiotic paper on LB agar, 1×10^6 CFU/mL, 24h 37°C, inhibition zone diameter", "protocol": "as §1"}, "E. coli (ATCC 8739) [4]": {"test_system": "E. coli (ATCC 8739)", "test": "Drug-sensitivity test (paper disc, inhibition zone)", "format": "cell-based, Escherichia coli", "parameters": "key: R: resistant strains; I: intermediate strains; S: sensitive strains", "settings": "6 mm antibiotic paper on LB agar, 1×10^6 CFU/mL, 24h 37°C, inhibition zone diameter", "protocol": "as §1"}, "[5]": {"test_system": "E. coli clinical isolate E14", "test": "Drug-sensitivity test (paper disc, inhibition zone)", "format": "cell-based, Escherichia coli", "parameters": "key to Drug sensitivity of E. coli E14: R: resistant strains; I: intermediate strains; S: sensitive strains", "settings": "for Drug sensitivity of E. coli E14: 6 mm antibiotic paper on LB agar, 1×10^6 CFU/mL, 24h 37°C, inhibition zone diameter", "protocol": "as §1"}, "[6]": {"test_system": "6 E. coli strains (E1, E9, E12, E14, E16, E18)", "format": "cell-based, Escherichia coli", "settings": "paper disc test", "protocol": "as §1"}, "[7]": {"test_system": "E. coli clinical isolate E12", "test": "Drug-sensitivity test (paper disc, inhibition zone)", "format": "cell-based, Escherichia coli", "parameters": "key to Drug sensitivity of E. coli E12: R: resistant strains; I: intermediate strains; S: sensitive strains", "settings": "for Drug sensitivity of E. coli E12: 6 mm antibiotic paper on LB agar, 1×10^6 CFU/mL, 24h 37°C, inhibition zone diameter", "protocol": "as §1"}, "[8]": {"test_system": "E. coli clinical isolate E16", "test": "Drug-sensitivity test (paper disc, inhibition zone)", "format": "cell-based, Escherichia coli", "parameters": "key to Drug sensitivity of E. coli E16: R: resistant strains; I: intermediate strains; S: sensitive strains", "settings": "for Drug sensitivity of E. coli E16: 6 mm antibiotic paper on LB agar, 1×10^6 CFU/mL, 24h 37°C, inhibition zone diameter", "protocol": "as §1"}, "[9]": {"test_system": "E. coli clinical isolate E1", "test": "microbe, parasite or virus in culture", "settings": "Escherichia coli", "protocol": "(§2) The minimum inhibitory concentrations (MICs) of the AMPs were determined using the microbroth dilution technique ([van Harten et al., 2021]). One hundred microliters of bacterial suspension at a concentration of 1×10^6 CFU/mL was pipetted into a 96-well plate. Then, 100 μL of AMP or gentamicin at various concentrations was added, while the bacterial suspension without AMPs and blank medium were used as controls."}, "E. coli (ATCC 8739) [10]": {"test_system": "E. coli (ATCC 8739)", "test": "Sterilization kinetics assay", "format": "cell-based, Escherichia coli", "settings": "8 μg/mL, 1×10^5 CFU/mL, 37°C, colony count", "protocol": "The sterilization kinetics assay was performed following previous methods ([Peng et al., 2022]; [Yong Fang et al., 2023]). […] At each time point, 10 μL of sample was diluted in 1 mL of PBS, and 100 μL of the dilution was plated on LB agar plates. After incubating at 37°C for 24h, the number of colonies was counted."}, "[11]": {"test_system": "E. coli clinical isolate E12", "test": "microbe, parasite or virus in culture", "format": "cell-based, Escherichia coli", "settings": "Escherichia coli", "protocol": "as §2"}, "[12]": {"test_system": "E. coli clinical isolate E16", "test": "microbe, parasite or virus in culture", "format": "cell-based, Escherichia coli", "settings": "Escherichia coli", "protocol": "as §2"}, "[13]": {"test_system": "E. coli clinical isolate E18", "test": "microbe, parasite or virus in culture", "format": "cell-based, Escherichia coli", "settings": "Escherichia coli", "protocol": "as §2"}, "[14]": {"test_system": "E. coli clinical isolate E9", "test": "microbe, parasite or virus in culture", "format": "cell-based, Escherichia coli", "settings": "Escherichia coli", "protocol": "as §2"}, "[15]": {"test_system": "E. coli clinical isolate E14", "test": "microbe, parasite or virus in culture", "format": "cell-based, Escherichia coli", "settings": "Escherichia coli", "protocol": "as §2"}, "E. coli (ATCC 8739) [16]": {"test_system": "E. coli (ATCC 8739)", "test": "microbe, parasite or virus in culture", "format": "cell-based, Escherichia coli", "settings": "Escherichia coli, ATCC8739", "protocol": "as §2"}, "E. coli (E16)": {"test_system": "E. coli (E16)", "test": "Chicken infection with MDR E. coli", "format": "in vivo", "protocol": "Except for the blank control group injected with 500 μL of normal saline, the other four groups were injected with 500 μL of 3×10^9 CFU/mL E. coli (E16) into the pectoral muscles. […] Clinical symptoms and were observed and documented for the chickens in each group after infection. After 72h, the chickens in each group were euthanized and examined for internal organ damage. Paraffin sections were prepared for microscopic examination of pathological changes. Under sterile conditions, 1 g samples of heart, liver, and spleen were collected, and each sample was supplemented with 20 mL of sterile PBS. After thorough grinding, the sample was diluted to the appropriate multiple, and 100 μL of the diluent was spread onto LB agar medium. The plates were incubated for 24h, after which the colonies were counted."}}, "data": [{"smiles": "CS(=O)(=O)c1ccc([C@@H](O)[C@@H](CF)NC(=O)C(Cl)Cl)cc1", "note": "[florfenicol]", "values": [{"measurement": "Drug sensitivity of E. coli E1", "setting": "[1]", "value": "R"}, {"measurement": "Drug sensitivity of E. coli E18", "setting": "[2]", "value": "R"}, {"measurement": "Drug sensitivity of E. coli E9", "setting": "[3]", "value": "R"}, {"measurement": "Drug sensitivity of E. coli ATCC 8739", "setting": "E. coli (ATCC 8739) [4]", "value": "S"}, {"measurement": "Drug sensitivity of E. coli E14", "setting": "[5]", "value": "R"}, {"measurement": "Resistance of the 6 clinical E. coli strains (in words)", "setting": "[6]", "value": "resistant"}, {"measurement": "Drug sensitivity of E. coli E12", "setting": "[7]", "value": "R"}, {"measurement": "Drug sensitivity of E. coli E16", "setting": "[8]", "value": "R"}]}, {"smiles": "CNC(C)C1CCC(N)C(OC2C(N)CC(N)C(OC3OCC(C)(O)C(NC)C3O)C2O)O1", "note": "(stereo not drawn) [gentamicin, reference compound]", "values": [{"measurement": "MIC", "setting": "[9]; 18 h, read-out: MIC against E. coli E1", "value": 64, "unit": "µg/mL"}, {"measurement": "MBC", "setting": "[9]; 24 h, read-out: MBC against E. coli E1", "value": 64, "unit": "µg/mL"}, {"measurement": "Drug sensitivity of E. coli E1", "setting": "[1]", "value": "R"}, {"measurement": "Drug sensitivity of E. coli E18", "setting": "[2]", "value": "R"}, {"measurement": "Drug sensitivity of E. coli E9", "setting": "[3]", "value": "I"}, {"measurement": "Drug sensitivity of E. coli ATCC 8739", "setting": "E. coli (ATCC 8739) [4]", "value": "I"}, {"measurement": "Time for complete bacterial eradication", "setting": "E. coli (ATCC 8739) [10]", "value": "≤ 60", "unit": "min"}, {"measurement": "Drug sensitivity of E. coli E14", "setting": "[5]", "value": "S"}, {"measurement": "Drug sensitivity of E. coli E14 (in words)", "setting": "[5]; paper disc test", "value": "susceptible"}, {"measurement": "MBC", "setting": "[11]; 50 μL from fully inhibited wells plated on LB agar, colonies counted after 24h 37°C, read-out: MBC against E. coli E12", "value": 4, "unit": "µg/mL"}, {"measurement": "MIC", "setting": "[11]; microbroth dilution, 1×10^6 CFU/mL, 37°C 18h, turbidity, read-out: MIC against E. coli E12", "value": 4, "unit": "µg/mL"}, {"measurement": "MBC", "setting": "[12]; 50 μL from fully inhibited wells plated on LB agar, colonies counted after 24h 37°C, read-out: MBC against E. coli E16", "value": 4, "unit": "µg/mL"}, {"measurement": "MIC", "setting": "[12]; microbroth dilution, 1×10^6 CFU/mL, 37°C 18h, turbidity, read-out: MIC against E. coli E16", "value": 4, "unit": "µg/mL"}, {"measurement": "MBC", "setting": "[13]; 50 μL from fully inhibited wells plated on LB agar, colonies counted after 24h 37°C, read-out: MBC against E. coli E18", "value": 128, "unit": "µg/mL"}, {"measurement": "MIC", "setting": "[13]; microbroth dilution, 1×10^6 CFU/mL, 37°C 18h, turbidity, read-out: MIC against E. coli E18", "value": 64, "unit": "µg/mL"}, {"measurement": "MBC", "setting": "[14]; 50 μL from fully inhibited wells plated on LB agar, colonies counted after 24h 37°C, read-out: MBC against E. coli E9", "value": 8, "unit": "µg/mL"}, {"measurement": "MIC", "setting": "[14]; microbroth dilution, 1×10^6 CFU/mL, 37°C 18h, turbidity, read-out: MIC against E. coli E9", "value": 8, "unit": "µg/mL"}, {"measurement": "MBC", "setting": "[15]; 50 μL from fully inhibited wells plated on LB agar, colonies counted after 24h 37°C, read-out: MBC against E. coli E14", "value": 4, "unit": "µg/mL"}, {"measurement": "MIC", "setting": "[15]; microbroth dilution, 1×10^6 CFU/mL, 37°C 18h, turbidity, read-out: MIC against E. coli E14", "value": 4, "unit": "µg/mL"}, {"measurement": "MBC", "setting": "E. coli (ATCC 8739) [16]; 50 μL from fully inhibited wells plated on LB agar, colonies counted after 24h 37°C, read-out: MBC against E. coli ATCC 8739", "value": 8, "unit": "µg/mL"}, {"measurement": "MIC", "setting": "E. coli (ATCC 8739) [16]; microbroth dilution, 1×10^6 CFU/mL, 37°C 18h, turbidity, read-out: MIC against E. coli ATCC 8739", "value": 8, "unit": "µg/mL"}, {"measurement": "Drug sensitivity of E. coli E12", "setting": "[7]", "value": "S"}, {"measurement": "Drug sensitivity of E. coli E12 (in words)", "setting": "[7]; paper disc test", "value": "susceptible"}, {"measurement": "3-day mortality rate", "setting": "E. coli (E16); 200 μg/mL, 500 μL into pectoral muscle 4h after 1.5×10^9 CFU E16", "value": 10, "unit": "%"}, {"measurement": "Bacterial loads in the heart, liver and spleen (in words)", "setting": "E. coli (E16); after 3 days of infection, vs infected untreated", "value": "significantly reduced"}, {"measurement": "Organ lesions of heart, liver, intestine (in words)", "setting": "E. coli (E16); autopsy, vs E. coli infection group", "value": "significant reduction in organ lesions"}, {"measurement": "Drug sensitivity of E. coli E16", "setting": "[8]", "value": "S"}, {"measurement": "Drug sensitivity of E. coli E16 (in words)", "setting": "[8]; paper disc test", "value": "susceptible"}]}]}
